pIC50: −log10 of the molar value.
Experiments:
[1] = target: T1, Recombinant Human ENPP-1 Protein (Homo sapiens (Human), UniProt P22413); test: ENPP1 Inhibition Assay; format: biochemical; conditions: for inhibiting the activity of ENPP1 (FIG. 1): result in words; for pIC50: substrate thymidine 5′-monophosphate p-nitrophenol ester, absorbance at 405 nm
Method: 1. ENPP1 Inhibition Assay
Materials: • Assay Buffer: 1 mM CaCl2, 0.2 mM ZnCl2, 50 mM Tris, pH 9.0 • Substrate: 8 mM Thymidine 5′-monophosphate p-nitrophenol ester sodium salt (Sigma Cat # T4510) • Enzyme: 5 ng/μL Recombinant Human ENPP-1 Protein (R&D Cat #6136-EN-010) DMSO • 96-well clear assay plates
(§1) An eight point serial dilution of drugs was prepared in 10× in assay buffer with the final assay concentrations starting at 10 μM, 3 μM, 1 μM, 0.3 μM . . . 0 μM. A dilution of DMSO was included as a control. The assay plate was set up as follows with each well in duplicate: 81 μL assay buffer+10 μL ENPP1 inhibitor or DMSO+5 μL Substrate+4 μL Enzyme. Both the enzyme and substrate were added to opposite sides of the well to ensure that there was no interaction until all wells had both components. The plate was then centrifuged gently for 10 seconds, followed by an incubation at 37° C. for 45 minutes. The reaction was quantified by measuring absorbance at 405 nm using the Envision.
(§2) IC50 values are determined using GraphPad Prism 5 software. The data were entered as an X-Y plot into the software as percent inhibition for each concentration of the drug. The concentration values of the drug were log transformed and the nonlinear regression was carried out using the “sigmoidal dose-response (variable slope)” option within the GraphPad software to model the data and calculate IC50 values. The IC50 values reported are the concentration of drug at which 50% inhibition was reached.

[2] = target: Recombinant Human ENPP-2/Autotaxin Protein (Homo sapiens (Human), UniProt Q13822); test: ENPP2 Inhibition Assay; format: biochemical; conditions: result in words
Method: 2. ENPP2 Inhibition Assay
Assay Buffer: 10 mM CaCl2, 5 mM MgCl2, 50 mM Tris, 0.02% Brij-35, pH 8.5
Substrate: 2 mM Bis(p-Nitrophenyl) Phosphate Sodium Salt (Sigma Cat # N3002)
Enzyme: 0.2 ng/μL Recombinant Human ENPP-2/Autotaxin Protein (R&D Cat #5255-EN)
96-well clear assay plates
as §1, with “duplicate: 15” for “duplicate: 81”, “buffer+10 μL,” for “buffer+10 μL”, “or DMSO+50” for “or DMSO+5”, “μL Substrate+25” for “μL Substrate+4”
as §2

[3] = target: T1, Recombinant Human ENPP-1 Protein; test: ENPP1 Thermal Shift Assay; format: binding
Method: 3. ENPP1 Thermal Shift Assay Materials: Recombinant Human ENPP-1 Protein (R&D Cat #6136-EN-010) Assay Buffer (1 mM CaCl2, 0.2 mM ZnCl2, 50 mM Tris, pH 9.0) 5000× SYPRO Orange (ThermoFisher cat # S6651) 384-well PCR Plates Methods: Each drug was prepared as a 10× solution in the assay buffer and SYPRO Orange was diluted to 10× concentration in water. Wells were set up in duplicate in a 384-well PCR plate as follows: 14 μL assay buffer, 2 μL ENPP1 Inhibitor or DMSO, 2 μL (0.5 μg) ENPP1 protein. Each well was mixed and incubated on ice for 5 minutes. Post incubation, 2 μL of SYPRO Orange was mixed into each well and followed by a gentle centrifugation. The protein melt reaction was run using ViiA7 software with temperatures beginning at 25° C. and increasing by 0.05° C./s to the maximum temperature of 99° C.

Saos-2 Cells = test: ENPP1 Mineralization Assay; format: cell-based; set-up: key to ENPP1 Mineral assay (50% inhibition at 50 μM): +: active at 50 μM concentration; NA: Not Active; conditions: for ENPP1 Mineral assay (50% inhibition at 50 μM): Alizarin Red; for inhibiting ENPP1 ability to produce mineralized nodules (FIG. 4): result in words
Method: 4. ENPP1 Mineralization Assay
Saos-2 Cells (ATCC CAT # HTB-85)
24-well Tissue Culture Plate
Ascorbic Acid, 5 mg/mL (100×)
β-Glycerophosphate, 1M (100×)
Phosphate Buffered Saline
Alizarin Red, 40 mM pH 4.2
Dye Extraction Reagent, 10% Methanol+10% Acetic Acid
Saos-2 cells were plated at a density of 1.5×10^6 cells/well and allowed to grow to 100% confluency over the following 1-2 days. Once completely confluent, the media was replaced with fresh media supplemented with 1× ascorbic acid, 1× β-glycerophosphate, and varying concentrations of ENPP1 inhibitor (if applicable). The addition of the mineralization components was considered Day 1, On Day 3, the media was gently aspirated with no wash followed by the addition of fresh media, mineralization components, and ENPP1 inhibitor (if applicable). On day 5, the media was gently aspirated and the cells were washed twice with PBS. The cells were then fixed with ice cold 70% ethanol for 1 hour at 4° C. Cells were washed once with PBS and stained with Alizarin Red for 30 minutes at room temperature with gentle rotation. Stained cells were washed three times with water for 10 minutes at room temperature with gentle rotation. After imaging cells, dye extraction reagent was added to each well and incubated for 30 minutes at room temperature. Alizarin red was quantified by measuring absorbance at a wavelength of 405 nm using the Envision.

T1 sequence (P22413 whole entry): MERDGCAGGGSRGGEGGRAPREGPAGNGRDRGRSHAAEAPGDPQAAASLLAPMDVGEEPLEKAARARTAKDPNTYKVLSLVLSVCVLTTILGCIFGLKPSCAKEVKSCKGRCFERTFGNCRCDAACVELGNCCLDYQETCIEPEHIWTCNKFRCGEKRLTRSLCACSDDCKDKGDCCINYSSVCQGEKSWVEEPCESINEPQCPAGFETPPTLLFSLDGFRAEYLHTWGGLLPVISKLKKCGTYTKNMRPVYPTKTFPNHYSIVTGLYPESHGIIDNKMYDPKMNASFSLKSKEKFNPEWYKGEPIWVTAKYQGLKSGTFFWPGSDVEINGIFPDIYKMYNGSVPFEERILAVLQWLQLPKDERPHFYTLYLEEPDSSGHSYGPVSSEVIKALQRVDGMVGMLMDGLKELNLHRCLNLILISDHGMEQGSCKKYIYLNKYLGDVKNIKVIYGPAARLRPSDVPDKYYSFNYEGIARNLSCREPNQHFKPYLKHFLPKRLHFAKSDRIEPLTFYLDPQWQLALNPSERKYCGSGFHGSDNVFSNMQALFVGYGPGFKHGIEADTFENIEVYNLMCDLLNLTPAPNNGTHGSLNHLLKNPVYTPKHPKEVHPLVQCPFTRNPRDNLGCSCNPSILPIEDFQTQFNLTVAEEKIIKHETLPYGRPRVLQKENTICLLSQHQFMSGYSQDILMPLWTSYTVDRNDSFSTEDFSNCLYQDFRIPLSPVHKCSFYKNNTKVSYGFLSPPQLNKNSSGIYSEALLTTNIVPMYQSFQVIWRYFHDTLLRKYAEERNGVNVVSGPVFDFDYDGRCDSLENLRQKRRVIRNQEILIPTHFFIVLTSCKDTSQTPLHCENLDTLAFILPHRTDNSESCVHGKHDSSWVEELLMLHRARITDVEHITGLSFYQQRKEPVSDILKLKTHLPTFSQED

Row | SMILES | pIC50 [1] | Tm (midpoint of the protein unfolding transition) of ENPP1 in the presence of compound ([3]; Tm of ENPP1 alone 64.2° C.) [°C] | inhibiting the activity of ENPP1 (FIG. 1) [1] | inhibiting the activity of ENPP2 (FIGS. 2A and 2B) [2] | selectivity ENPP1 versus ENPP2 [2] | stability of recombinant ENPP1 protein (FIG. 3) ([3]; result in words) | ENPP1 Mineral assay (50% inhibition at 50 μM) (Saos-2 Cells) | inhibiting ENPP1 ability to produce mineralized nodules (FIG. 4) (Saos-2 Cells)
1 | COc1cc(NC(=O)CSc2nc3cc(Cl)ncc3[nH]2)ccc1O [Compound 22, 2-((6-chloro-3H-imidazo[4,5-c]pyridin-2-yl)thio)-N-(4-hydroxy-3-methoxyphenyl)acetamide] | 5.94 | – | – | – | – | – | + | –
2 | COc1ccc(NC(=O)CSc2nc3cnc(C(F)(F)F)cc3[nH]2)cc1O [Compound 31, N-(3-hydroxy-4-methoxyphenyl)-2-((6-(trifluoromethyl)-1H-imidazo[4,5-c]pyridin-2-yl)thio)acetamide] | 6.74 | – | – | – | – | – | + | –
3 | O=C(CSc1nc2cnc(Cl)cc2[nH]1)Nc1ccc(F)c(O)c1 [Compound 37, 2-((6-chloro-1H-imidazo[4,5-c]pyridin-2-yl)thio)-N-(4-fluoro-3-hydroxyphenyl)acetamide] | 6.77 | – | – | – | – | – | + | –
4 | COc1ccc(NC(=O)CSc2nc3cnc(C(F)(F)F)cc3[nH]2)cc1F [Compound 38, N-(3-fluoro-4-methoxyphenyl)-2-((6-(trifluoromethyl)-1H-imidazo[4,5-c]pyridin-2-yl)thio)acetamide] | 6.31 | – | – | – | – | – | + | –
5 | O=C(CSc1nc2cnc(C(F)(F)F)cc2[nH]1)Nc1ccc(F)c(O)c1 [Compound 45, N-(4-fluoro-3-hydroxyphenyl)-2-((6-(trifluoromethyl)-1H-imidazo[4,5-c]pyridin-2-yl)thio)acetamide] | 6.19 | – | – | – | – | – | + | –

Compounds with a higher pIC50 [1], results first:

Row | pIC50 [1] | Tm (midpoint of the protein unfolding transition) of ENPP1 in the presence of compound ([3]; Tm of ENPP1 alone 64.2° C.) [°C] | SMILES | inhibiting the activity of ENPP1 (FIG. 1) [1] | inhibiting the activity of ENPP2 (FIGS. 2A and 2B) [2] | selectivity ENPP1 versus ENPP2 [2] | stability of recombinant ENPP1 protein (FIG. 3) ([3]; result in words) | ENPP1 Mineral assay (50% inhibition at 50 μM) (Saos-2 Cells) | inhibiting ENPP1 ability to produce mineralized nodules (FIG. 4) (Saos-2 Cells)
6 | 6.94 | – | COc1ccc(NC(=O)CSc2nc3cc(C#N)ncc3[nH]2)cc1OC [Compound 68, 2-((6-Cyano-3H-imidazo[4,5-c]pyridin-2-yl)thio)-N-(3,4-dimethoxyphenyl)acetamide] | effective in inhibiting the activity of ENPP1 | – | – | – | + | effective in inhibiting ENPP1 ability to produce mineralized nodules
7 | 7.07 | 67.84 | COc1ccc(NC(=O)CSc2nc3cc(Cl)ncc3[nH]2)cc1O [Compound 21, 2-((6-chloro-3H-imidazo[4,5-c]pyridin-2-yl)thio)-N-(3-hydroxy-4-methoxyphenyl)acetamide] | effective in inhibiting the activity of ENPP1 | ineffective in inhibiting the activity of ENPP2 | selective at inhibiting ENPP1 but not ENPP2 | effective in increasing the stability of recombinant ENPP1 protein | + | effective in inhibiting ENPP1 ability to produce mineralized nodules
8 | 7.10 | – | COc1ccc(NC(=O)CSc2nc3c(C)c(C#N)ncc3[nH]2)cc1O [Compound 78, 2-((6-Cyano-7-methyl-3H-imidazo[4,5-c]pyridin-2-yl)thio)-N-(3-hydroxy-4-methoxyphenyl)acetamide] | effective in inhibiting the activity of ENPP1 | ineffective in inhibiting the activity of ENPP2 | selective at inhibiting ENPP1 but not ENPP2 | – | + | –

Source: US10689376B2, “Substituted-3H-imidazo [4,5-c] pyridine and 1H-pyrrolo[2,3-c]pyridine series of novel ectonucleotide pyrophosphatase/phosphodiesterase-1 (ENPP1) and stimulator for interferon genes (STING) modulators as cancer immunotherapeutics” (Stingray Therapeutics, Inc., priority 2017, dated 2020)
